According to the supplement of paper PMC3937590:

Key:
Experiment in all cases: -log10 GI50 (growth inhibition 50%) (-log10(M)); higher = more potent growth inhibition
HCC1395 = tested on: HCC1395
Outline: (§1)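 The reported figure is the negative logarithm of GI50, defined as the molar concentration that produces the set level of growth inhibition. The logarithm is base 10. It comes from a Gompertz curve fitted by nonlinear least squares to 72-hour luminescence data from breast cancer cell lines given nine doses in 1:5 serial dilution, in triplicate, with a time-zero plate as reference. A < qualifier marks values equal to the top dose.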

MDAMB157 = tested on: MDAMB157
Outline: as §1

BT549 = tested on: BT549
Outline: as §1

HCC1937 = tested on: HCC1937
Outline: as §1

UACC812 = tested on: UACC812
Outline: as §1

MCF10F = tested on: MCF10F
Outline: as §1

HCC2185 = tested on: HCC2185
Outline: as §1

HCC1428 = tested on: HCC1428
Outline: as §1

SUM225CWN = tested on: SUM225CWN
Outline: as §1

HCC70 = tested on: HCC70
Outline: as §1

SUM1315MO2 = tested on: SUM1315MO2
Outline: as §1

HCC38 = tested on: HCC38
Outline: as §1

BT474 = tested on: BT474
Outline: as §1

SUM149PT = tested on: SUM149PT
Outline: as §1

MCF12A = tested on: MCF12A
Outline: as §1

LY2 = tested on: LY2
Outline: as §1

BT483 = tested on: BT483
Outline: as §1

HCC1143 = tested on: HCC1143
Outline: as §1

HCC1954 = tested on: HCC1954
Outline: as §1

MDAMB415 = tested on: MDAMB415
Outline: as §1

Compound | -log10 GI50 (HCC1395) | -log10 GI50 (MDAMB157) | -log10 GI50 (BT549) | -log10 GI50 (HCC1937) | -log10 GI50 (UACC812) | -log10 GI50 (MCF10F) | -log10 GI50 (HCC2185) | -log10 GI50 (HCC1428) | -log10 GI50 (SUM225CWN) | -log10 GI50 (HCC70) | -log10 GI50 (SUM1315MO2) | -log10 GI50 (HCC38) | -log10 GI50 (BT474) | -log10 GI50 (SUM149PT) | -log10 GI50 (MCF12A) | -log10 GI50 (LY2) | -log10 GI50 (BT483) | -log10 GI50 (HCC1143) | -log10 GI50 (HCC1954) | -log10 GI50 (MDAMB415)
O=S(=O)(CC1CS1)c1ccc(Oc2ccccc2)cc1 (stereo not given) [SB-3CT] | 4.03 | < 3.78 | 5.17 | < 4 | < 4 | < 4 | 4.33 | 4.24 | < 4 | < 3.78 | 4.02 | 4.31 | 4.99 | 4.27 | < 3.78 | < 4 | 4.59 | < 4 | < 4 | 4.77
N#Cc1c(-c2ccccc2)cc(-c2cc(Br)ccc2O)[nH]c1=O [TCS PIM-11] | < 3.88 | < 3.88 | < 3.88 | < 3.88 | < 3.88 | < 3.88 | 4.33 | 4.09 | 4.53 | 4.47 | 4.75 | 3.95 | < 3.88 | 4.49 | 4.36 | < 3.88 | < 3.88 | < 3.88 | 4.52 | < 3.88
CO[C@H]1C[C@@H]2CC[C@@H](C)[C@@](O)(O2)C(=O)C(=O)N2CCCC[C@H]2C(=O)O[C@H]([C@H](C)C[C@@H]2CC[C@@H](OC(=O)C(C)(CO)CO)[C@H](OC)C2)CC(=O)[C@H](C)/C=C(\C)[C@@H](O)[C@@H](OC)C(=O)[C@H](C)C[C@H](C)/C=C/C=C/C=C/1C [Temsirolimus] | 4.83 | 4.63 | 6.61 | 6.36 | 6.21 | 6.11 | 8.19 | 5.25 | 5.6 | 6.49 | 6.06 | 4.91 | 7.57 | 5.21 | 5.03 | 6.85 | 6.57 | 5.8 | 6.66 | 8.36
CC(/C=C/C(=O)NO)=C\[C@@H](C)C(=O)c1ccc(N(C)C)cc1 [Trichostatin A] | 4.5 | 4.68 | 5.13 | 4.82 | 5.05 | 4.22 | 4.79 | 5.73 | 4.86 | 4.84 | 4.31 | 5.22 | 5.01 | 5.14 | 4.71 | 4.99 | 5 | 4.77 | 4.96 | 4.73
Cc1cc(Nc2cc(N3CCN(C)CC3)nc(Sc3ccc(NC(=O)C4CC4)cc3)n2)n[nH]1 [VX-680] | 5.21 | 5.43 | 5.75 | 5.1 | 4.79 | 4.99 | 6.48 | 5.11 | 4.76 | 5.6 | 5.8 | 6.74 | 4.84 | 5.07 | 6.33 | 5.21 | 5.44 | 6 | 5.32 | 5.58
CCCC(CCC)C(=O)O [Valproic acid] | 2.47 | 2.68 | 2.57 | 2.56 | 2.59 | 2.42 | 2.88 | 3.13 | 2.76 | 2.99 | 2.62 | 3.05 | 3.03 | 2.86 | 2.74 | 2.96 | 3.01 | 2.66 | 2.52 | 3.06
Cc1cc(C(=O)N2CCN(c3cccc(Cl)c3)CC2)n(-c2ccccc2)n1 [XRP44X] | 6.03 | 5.95 | 5.83 | < 3.88 | 6.15 | < 3.88 | 6.31 | 5.85 | 5.5 | 5.97 | 6.14 | 5.77 | 4.61 | 5.88 | 6.67 | 6.08 | 5.23 | 5.69 | 6.3 | 6.2
